{"source": "patent US12398154B2", "about": "“Azaquinazoline pan-KRas inhibitors” (Mirati Therapeutics, Inc., priority 2020, dated 2025)", "key": {"pERK in ASPC1 cells": {"tested_on": "pERK in ASPC1 cells", "test": "Inhibition of KRas phosphorylation of ERK (Cisbio HTRF pERK assay)", "conditions": "Homo sapiens, ASPC1, read-out: Inhibition (HTRF IC50) of KRas-mediated Phosphorylation of ERK, AsPC-1"}, "pERK in MKN1 cells": {"tested_on": "pERK in MKN1 cells", "test": "Inhibition of KRas phosphorylation of ERK (Cisbio HTRF pERK assay)", "conditions": "Homo sapiens, MKN-1, 3 h, read-out: Inhibition (HTRF IC50) of KRas-mediated Phosphorylation of ERK, MKN1"}, "KRas G12D": {"molecular_target": "KRas G12D (Homo sapiens, UniProt P01116, G12D)", "sequence (P01116 1-169 isoform P01116-2 G12D)": "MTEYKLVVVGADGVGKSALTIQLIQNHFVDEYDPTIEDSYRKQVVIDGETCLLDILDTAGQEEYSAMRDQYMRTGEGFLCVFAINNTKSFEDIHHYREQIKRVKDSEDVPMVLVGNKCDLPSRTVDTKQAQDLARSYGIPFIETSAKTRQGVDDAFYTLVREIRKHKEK", "test": "biochemical", "description": "(§1) The ability of a compound to bind to KRas was measured using a TR-FRET displacement assay. […] After a 60-minute incubation at room temperature, the reaction was measured using a BMG LABTECH CLARIO star Plus via TR-FRET. […] The POC values were fit to a 4-parameter IC50 equation and the IC50 value reported."}, "KRas G12V": {"molecular_target": "KRas G12V (Homo sapiens, UniProt P01116, G12V)", "sequence (P01116 1-169 isoform P01116-2 G12V)": "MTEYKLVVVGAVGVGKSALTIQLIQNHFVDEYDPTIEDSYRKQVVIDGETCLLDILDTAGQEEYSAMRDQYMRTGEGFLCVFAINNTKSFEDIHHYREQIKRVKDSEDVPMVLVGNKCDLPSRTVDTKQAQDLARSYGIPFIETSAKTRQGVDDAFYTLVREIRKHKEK", "test": "biochemical", "description": "as §1"}, "pERK in HCT116 cells": {"tested_on": "pERK in HCT116 cells", "test": "Inhibition of KRas phosphorylation of ERK (Cisbio HTRF pERK assay)", "conditions": "Homo sapiens, HCT-116, read-out: Inhibition (HTRF IC50) of KRas-mediated Phosphorylation of ERK, HCT116", "description": "To harvest cells from flask using 0.05% Trypsin/EDTA solution. Add 10 mL of media to stop trypsinizing. Pipette the cells into a conical bottom 50 mL centrifuge tube and centrifuge 5 min×1000 rpm. • 2. Re-suspend the cell pellet in media, take a cell count, and then adjust the cell density using fresh media. • 3. Seed 6,000 cells into cell culture plate with 50 μL media. […] Incubate cell plate overnight in a 37° C., 5% CO2 incubator. • Compound titrations • 1. Use Tecan to complete the compound addition. Compounds start from 10 uM top, 3-fold dilution, and 10 doses. The final DMSO concentration is 0.8%. Dispensed 0.2 uM Trametinib as Min control. • 2. Incubate cell plate for 3 hrs in the incubator. • Detection with cisbio pERK HTRF kit • 1. […] At the end of the compound treatment, flick-off the media. • 3. Add 35 μL of lysis buffer per well using a Multidrop Combi. Then place on a plate agitator shaking at 300 rpm at 4° C. for 40 mins. • 4. Make up the HTRF antibody buffer. For each assay plate, mix 50 μL of d2-conjugate antibody with 950 μL of detection buffer. Similarly, mix 50 μL of Cryptate antibody with 950 μL of detection buffer. Then mix the two diluted antibodies together. • 5. Dispense 3.4 μL the antibody buffer to wells of an empty assay plate. Seal the plate and centrifuge plate 30 sec×1000 rpm. • 6. At the end of the 4° C. lysis, centrifuge the lysate plates 3 mins×1500 rpm. • 7. Use the Bravo to transfer 13.6 μL of lysate from cell culture plate to assay plate.\nThen incubate assay plate for 2 hrs at room temperature. […] At the end of incubation, read plate on the Envision after centrifuging plate 30 sec× • 1000 rpm."}, "pERK in H727 cells": {"tested_on": "pERK in H727 cells", "test": "Inhibition of KRas phosphorylation of ERK (Cisbio HTRF pERK assay)", "conditions": "Homo sapiens, NCI-H727, read-out: Inhibition (HTRF IC50) of KRas-mediated Phosphorylation of ERK, H727"}, "pERK in PSN1 cells": {"tested_on": "pERK in PSN1 cells", "test": "Inhibition of KRas phosphorylation of ERK (Cisbio HTRF pERK assay)", "conditions": "Homo sapiens, PSN1, 3 h, read-out: Inhibition (HTRF IC50) of KRas-mediated Phosphorylation of ERK, PSN1"}, "KRas G12R": {"molecular_target": "KRas G12R (Homo sapiens, UniProt P01116, G12R)", "sequence (P01116 1-169 isoform P01116-2 G12R)": "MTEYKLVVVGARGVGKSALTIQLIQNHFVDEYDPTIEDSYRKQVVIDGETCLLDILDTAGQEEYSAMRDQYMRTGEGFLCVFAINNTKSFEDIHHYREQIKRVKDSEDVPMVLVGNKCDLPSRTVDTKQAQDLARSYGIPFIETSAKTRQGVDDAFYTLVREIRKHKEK", "test": "biochemical", "description": "as §1"}, "pERK in H460 cells": {"tested_on": "pERK in H460 cells", "test": "Inhibition of KRas phosphorylation of ERK (Cisbio HTRF pERK assay)", "conditions": "Homo sapiens, NCI-H460, read-out: Inhibition (HTRF IC50) of KRas-mediated Phosphorylation of ERK, H460"}}, "data": [{"compound": "CCc1c(F)ccc2cc(O)cc(-c3ncc4c(N5CCCCC(O)C5)nc(OC[C@@]56CCCN5C[C@H](F)C6)nc4c3F)c12", "note": "(stereo partly drawn) [Example 347, 1-(7-(8-ethyl-7-fluoro-3-hydroxynaphthalen-1-yl)-8-fluoro-2-(((2R,7aS)-2-fluorohexahydro-1H-pyrrolizin-7a-yl)methoxy)pyrido[4,3-d]pyrimidin-4-yl)azepan-3-ol]", "values": [{"measurement": "IC50", "setting": "pERK in ASPC1 cells", "result": 118, "unit": "nM"}, {"measurement": "IC50", "setting": "pERK in MKN1 cells", "result": 98, "unit": "nM"}, {"measurement": "IC50", "setting": "KRas G12D", "result": 3, "unit": "nM"}, {"measurement": "IC50", "setting": "KRas G12V", "result": 3, "unit": "nM"}, {"measurement": "IC50", "setting": "pERK in HCT116 cells", "result": 195, "unit": "nM"}, {"measurement": "IC50", "setting": "pERK in H727 cells", "result": 73, "unit": "nM"}, {"measurement": "IC50", "setting": "pERK in PSN1 cells", "result": 4460, "unit": "nM"}, {"measurement": "IC50", "setting": "KRas G12R", "result": 3, "unit": "nM"}, {"measurement": "IC50", "setting": "pERK in H460 cells", "result": 127, "unit": "nM"}]}, {"compound": "O=C1C[C@]2(CCCN(c3nc(OC[C@@]45CCCN4C[C@H](F)C5)nc4c(F)c(-c5cc(O)cc6ccc(F)c(Cl)c56)ncc34)C2)N1", "note": "[Example 416, (S)-6-(7-(8-chloro-7-fluoro-3-hydroxynaphthalen-1-yl)-8-fluoro-2-(((2R,7aS)-2-fluorohexahydro-1H-pyrrolizin-7a-yl)methoxy)pyrido[4,3-d]pyrimidin-4-yl)-1,6-diazaspiro[3.5]nonan-2-one]", "values": [{"measurement": "IC50", "setting": "pERK in ASPC1 cells", "result": 141, "unit": "nM"}, {"measurement": "IC50", "setting": "pERK in MKN1 cells", "result": 3, "unit": "nM"}, {"measurement": "IC50", "setting": "KRas G12D", "result": "≤ 2", "unit": "nM"}, {"measurement": "IC50", "setting": "KRas G12V", "result": "≤ 2", "unit": "nM"}, {"measurement": "IC50", "setting": "pERK in HCT116 cells", "result": 2190, "unit": "nM"}, {"measurement": "IC50", "setting": "pERK in H727 cells", "result": 83, "unit": "nM"}, {"measurement": "IC50", "setting": "pERK in PSN1 cells", "result": 1300, "unit": "nM"}, {"measurement": "IC50", "setting": "KRas G12R", "result": "≤ 2", "unit": "nM"}, {"measurement": "IC50", "setting": "pERK in H460 cells", "result": 283, "unit": "nM"}]}, {"compound": "Oc1cc(-c2ncc3c(N4CC5CC(O)CC4C5)nc(OC[C@@]45CCCN4C[C@H](F)C5)nc3c2F)c2c(Cl)c(F)ccc2c1", "note": "(stereo partly drawn) [Example 422, 6-(7-(8-chloro-7-fluoro-3-hydroxynaphthalen-1-yl)-8-fluoro-2-(((2R,7aS)-2-fluorohexahydro-1H-pyrrolizin-7a-yl)methoxy)pyrido[4,3-d]pyrimidin-4-yl)-6-azabicyclo[3.2.1]octan-3-ol]", "values": [{"measurement": "IC50", "setting": "pERK in ASPC1 cells", "result": 430, "unit": "nM"}, {"measurement": "IC50", "setting": "pERK in MKN1 cells", "result": 26, "unit": "nM"}, {"measurement": "IC50", "setting": "KRas G12D", "result": 7, "unit": "nM"}, {"measurement": "IC50", "setting": "KRas G12V", "result": "≤ 2", "unit": "nM"}, {"measurement": "IC50", "setting": "pERK in HCT116 cells", "result": 539, "unit": "nM"}, {"measurement": "IC50", "setting": "pERK in H727 cells", "result": 112, "unit": "nM"}, {"measurement": "IC50", "setting": "pERK in PSN1 cells", "result": 1810, "unit": "nM"}, {"measurement": "IC50", "setting": "KRas G12R", "result": 5, "unit": "nM"}, {"measurement": "IC50", "setting": "pERK in H460 cells", "result": 303, "unit": "nM"}]}, {"compound": "CCc1c(F)ccc2cc(O)cc(-c3ncc4c(N5CCCc6nn(C(=O)NC(C)C)cc6C5)nc(OC[C@@]56CCCN5C[C@H](F)C6)nc4c3F)c12", "note": "[Example 479, 5-(7-(8-ethyl-7-fluoro-3-hydroxynaphthalen-1-yl)-8-fluoro-2-(((2R,7aS)-2-fluorohexahydro-1H-pyrrolizin-7a-yl)methoxy)pyrido[4,3-d]pyrimidin-4-yl)-N-isopropyl-5,6,7,8-tetrahydropyrazolo[4,3-c]azepine-2(4H)-carboxamide]", "values": [{"measurement": "IC50", "setting": "pERK in ASPC1 cells", "result": 203, "unit": "nM"}, {"measurement": "IC50", "setting": "pERK in MKN1 cells", "result": 328, "unit": "nM"}, {"measurement": "IC50", "setting": "KRas G12D", "result": 5, "unit": "nM"}, {"measurement": "IC50", "setting": "KRas G12V", "result": 4, "unit": "nM"}, {"measurement": "IC50", "setting": "pERK in H727 cells", "result": 115, "unit": "nM"}, {"measurement": "IC50", "setting": "pERK in PSN1 cells", "result": "≥ 10000", "unit": "nM"}, {"measurement": "IC50", "setting": "KRas G12R", "result": 12, "unit": "nM"}, {"measurement": "IC50", "setting": "pERK in H460 cells", "result": 987, "unit": "nM"}]}, {"compound": "CCc1c(F)ccc2cc(O)cc(-c3ncc4c(N5CCCC6(C5)CS(=O)(=O)C6)nc(OC[C@@]56CCCN5C[C@H](F)C6)nc4c3F)c12", "note": "[Example 481, 6-(7-(8-ethyl-7-fluoro-3-hydroxynaphthalen-1-yl)-8-fluoro-2-(((2R,7aS)-2-fluorohexahydro-1H-pyrrolizin-7a-yl)methoxy)pyrido[4,3-d]pyrimidin-4-yl)-2-thia-6-azaspiro[3.5]nonane 2,2-dioxide]", "values": [{"measurement": "IC50", "setting": "pERK in ASPC1 cells", "result": 387, "unit": "nM"}, {"measurement": "IC50", "setting": "pERK in MKN1 cells", "result": 49, "unit": "nM"}, {"measurement": "IC50", "setting": "KRas G12D", "result": 4, "unit": "nM"}, {"measurement": "IC50", "setting": "KRas G12V", "result": 4, "unit": "nM"}, {"measurement": "IC50", "setting": "pERK in HCT116 cells", "result": 3150, "unit": "nM"}, {"measurement": "IC50", "setting": "pERK in H727 cells", "result": 643, "unit": "nM"}, {"measurement": "IC50", "setting": "pERK in PSN1 cells", "result": 5410, "unit": "nM"}, {"measurement": "IC50", "setting": "KRas G12R", "result": 7, "unit": "nM"}, {"measurement": "IC50", "setting": "pERK in H460 cells", "result": 827, "unit": "nM"}]}, {"compound": "CCc1c(F)ccc2cc(O)cc(-c3ncc4c(NCc5cc(C(=O)N(C)C)nn5C)nc(OC[C@@]56CCCN5C[C@H](F)C6)nc4c3F)c12", "note": "[Example 483, 5-(((7-(8-ethyl-7-fluoro-3-hydroxynaphthalen-1-yl)-8-fluoro-2-(((2R,7aS)-2-fluorotetrahydro-1H-pyrrolizin-7a(5H)-yl)methoxy)pyrido[4,3-d]pyrimidin-4-yl)amino)methyl)-N,N,1-trimethyl-1H-pyrazole-3-carboxamide]", "values": [{"measurement": "IC50", "setting": "pERK in ASPC1 cells", "result": 890, "unit": "nM"}, {"measurement": "IC50", "setting": "pERK in MKN1 cells", "result": 83, "unit": "nM"}, {"measurement": "IC50", "setting": "KRas G12D", "result": "≤ 2", "unit": "nM"}, {"measurement": "IC50", "setting": "KRas G12V", "result": "≤ 2", "unit": "nM"}, {"measurement": "IC50", "setting": "pERK in H727 cells", "result": 339, "unit": "nM"}, {"measurement": "IC50", "setting": "pERK in PSN1 cells", "result": "≥ 10000", "unit": "nM"}, {"measurement": "IC50", "setting": "KRas G12R", "result": "≤ 2", "unit": "nM"}, {"measurement": "IC50", "setting": "pERK in H460 cells", "result": 1590, "unit": "nM"}]}]}
